Results on four molecules are retold here after patent US9352010B2, “Treatment of HIV-1 infection and AIDS” (The J. David Gladstone Institutes, priority 2011, dated 2016).

Entries after “also recorded” stand apart in the source; their conditions may differ. Where two headings read alike, the source gives them in different places.

The test system of assay [1] is CFSE-labeled spleen CD4 T-cells. Briefly: Indirect killing assay with CFSE-labeled human spleen cells. Format: cell-based. Particulars: for loss of CFSE-labeled spleen CD4 T-cells: HIV-infected spleen HLAC effectors; for loss of resting CFSE-labeled spleen CD4 T-cells: HIV-infected tonsil effector cells. As to the method:
(B and C) Fresh human spleen from a single donor were processed into HLAC and assessed in indirect cell killing assay as described in FIG. 2A. Effector spleen HLAC were stimulated with PHA and IL-2 48 hours before mixing, but not during co-culturing with CFSE-labeled cells. Non-activated resting CFSE-labeled spleen cells were co-cultured with NL4-3-infected or uninfected effector cells in the presence or absence of the following drugs, AZT (5 μM), AMD3100 (250 nM), Efavirenz (100 nM), or Raltegravir (30 μM), as indicated. […] Percentages were normalized to the number of viable CFSE-positive spleen CD4 T-cells co-cultured with uninfected effectors in the presence of AZT, as depicted by (*). Error bars represent standard error of the mean for three experiments performed with three different spleen and tonsil donors.
Human tonsil or splenic tissues from routine tonsillectomies were obtained from the National Disease Research Interchange and the Cooperative Human Tissue Network and processed as previously described (Jekle et al., 2003, J Virol 77:5846-5854). In brief, tonsils or spleen were minced, passed through a 40-μm cell strainer, and cultured in 96-well U-bottomed polystyrene plates (2×10^6 cells/well) in medium (200 μl/well) consisting of RPMI 1640 supplemented with 15% heat-inactivated fetal bovine serum, 100 μg/ml gentamicin, 200 μg/ml ampicillin, 1 mM sodium pyruvate, 1% nonessential amino acids (Mediatech), 2 mM L-glutamine, and 1% fungizone (Invitrogen). All HIV-1 infections were carried out with 20-50 ng of HIV-1 p24^gag. Cells were incubated with the virus for 12-16 h, washed extensively, and supplemented with fresh medium. After day 5, infections were monitored by measuring p24gag levels in the culture medium using a FLAQ assay (Hayden et al., 2003, AIDS 17:629-631). Infected and uninfected cultures were manipulated as described for individual experiments. In “indirect killing” assays, unless otherwise stated, drugs were used at the following concentrations: 5 μM AZT; 250 nM AMD3100; 10 μg/ml T20; 100 nM Efavirenz; 1 μM Nevirapine; 30 μM Raltegravir; 60 μM 118-D-24; 5 μM Amprenavir; 5 μM Saquinavir; 5 μM Indinavir. CFSE-labeled cells were activated with PHA (5 μg/ml) and IL-2 (20 ng/ml) 2 days before mixing with effector cells.
Uninfected cells (5×10^6/ml) were labeled with 1 μM CFSE (Molecular Probes C1157), treated with 5 μM AZT for 24 h, and co-cultured with effector cells. CFSE readily diffuses into cells, where intracellular esterases cleave the acetate groups, converting it to a fluorescent, membrane-impermeable dye. […] To quantify indirect killing, mixed (CFSE-labeled+effector) cultures were washed in FACS buffer (PBS supplemented with 2 mM EDTA and 2% fetal bovine serum), stained with PE-conjugated anti-CD4, PerCP-conjugated anti-CD19, and APC-conjugated anti-CD8 (all from BD Pharmingen) and fixed in 1% paraformaldehyde. To determine the absolute numbers of the viable CFSE-labeled cells, a standard number of fluorescent beads (Flow-Count Fluorospheres, Beckman Coulter) was added to each cell-suspension sample before data acquisition. Data were collected on a FACS Calibur (BD Biosciences) and analyzed with Flowjo software (Treestar). The level of indirect killing was defined by sequential gating beginning with forward scatter versus side scatter to select live lymphocytes, subgating on the CFSE-positive population, and calculating the numbers of CD4 or CD8 T or B cells, divided by the number of fluorescent beads acquired.

The next assay concerns CFSE-labeled CD4 T-cells. Format: cell-based, human. The following applies: for indirect killing (loss) of resting CFSE-labeled CD4 T-cells: NL4-3-infected effector cells.
A further assay relates to IL-1β. Briefly: Maturation and secretion of IL-1β in abortively infected tonsillar CD4 T-cells (Western blot). The following applies: AZT 5 μM, AMD3100 250 nM, efavirenz 100 nM. Format: cell-based, human. As to the method: For assessing the processing and secretion of IL-1β in abortively infected CD4 T-cells, CD4 T-cells were isolated from HLACs as described above, and were spinoculated with or without NL4-3 with the indicated drugs as describes above in vi (Spinoculation) and in FIG. 7B. For intracellular protein analysis, cells were lysed 72 hours after spinoculation in RIPA buffer (150 mM NaCl, 1% Nonidet P-40 (vol/vol), 0.5% […] (vol/vol), 0.1% SDS (vol/vol), 50 mM Tris-HCl (pH 8), 1 mM DTT), and EDTA-free Protease Inhibitor (Roche Applied Science, Cat. #04 693 132 001). For analysis of secreted IL-1β, supernatants (200 μl/1 million cells) from the rest of the CD4 T-cells were collected five days after spinoculation and analyzed using Western blot. For Western blots we used the Bio-Rad Criterion 15% pre-cast Tris-HCl gels. Primary antibodies used were 1/1000 of the mouse monoclonal anti-human IL-1β (R&D Systems, Cat. # MAB201) and 1/10000 of the mouse monoclonal anti-β-Actin (Sigma, Cat. # A5316).
A general note: In western blotting, separated proteins are transferred to a membrane and probed.

Regarding `c1cc(CN2CCCNCCNCCCNCC2)ccc1CN1CCCNCCNCCCNCC1` [AMD3100], the “loss of CFSE-labeled spleen CD4 T-cells” value in assay [1] was “prevented the loss of CD4 T-cells as efficiently as AMD3100”. Moreover, the “indirect killing of CFSE-labeled CD4 T-cells” value with CFSE-labeled CD4 T-cells (WEAU 16-8 (R5/X4)-infected effector cells) is reported as “prevented indirect killing”. For the same molecule, in the assay with CFSE-labeled CD4 T-cells (activated target cells in the presence of AZT), the “AZT-induced killing of activated CFSE-labeled cells” value is given as “prevented the AZT-induced killing”. The “maturation and release of bioactive 17 kDa IL-1β after NL4-3 infection” value (shortened to “maturation and release”) with IL-1β is recorded as “completely prevented; also recorded: blocked”.

As for `Cc1cn([C@H]2C[C@H](N=[N+]=[N-])[C@@H](CO)O2)c(=O)[nH]c1=O` [AZT], in assay [1], the “loss of CFSE-labeled spleen CD4 T-cells” value is reported as “robust in the absence of drugs or in the presence of AZT” and the “loss of resting CFSE-labeled spleen CD4 T-cells” value was “massively depleted”. The “depletion of activated CFSE-labeled CD4 T-cells” value with CFSE-labeled CD4 T-cells (AZT-resistant HIV-1 clones, AZT 0.5 μM) is “did not deplete”. In addition, the “indirect killing (loss) of resting CFSE-labeled CD4 T-cells” value (“indirect killing (loss)” below) with CFSE-labeled CD4 T-cells is recorded as “robust”. The “depletion of activated CFSE-labeled CD4 T-cells” value in the assay on CFSE-labeled CD4 T-cells (PHA and IL-2 activated target cells, NL4-3 effectors) was “extensively depleted in cultures containing AZT”. Further, in the assay on IL-1β, the “maturation and release” value is “similarly resulted in maturation and release of the bioactive 17 kDa IL-1β; also recorded: also resulted in release of bioactive 17-kDa IL-1β”.

For `O=C1Nc2ccc(Cl)cc2[C@@](C#CC2CC2)(C(F)(F)F)O1` [efavirenz], in assay [1], the “loss of CFSE-labeled spleen CD4 T-cells” value is listed as “prevented the loss of CD4 T-cells as efficiently as AMD3100” and the “loss of resting CFSE-labeled spleen CD4 T-cells” value was “prevented this loss of CD4 T-cells”. Moreover, the “indirect killing (loss)” value in the assay on CFSE-labeled CD4 T-cells is on record as “blocked indirect killing of resting CD4 T-cells as efficiently as AMD3100”. Further, in the assay on IL-1β, the “maturation and release” value is reported as “completely prevented; also recorded: blocked”.

On to enfuvirtide, for which the “indirect killing of CFSE-labeled CD4 T-cells” value in the assay on CFSE-labeled CD4 T-cells (GIA-SKY (T20-dependent)-infected effector cells, 1 μg/ml T20) is “Indirect killing was observed”; in the assay with CFSE-labeled CD4 T-cells (SIM (T20-resistant)-infected effector cells), “did not inhibit indirect killing”. The “indirect killing (loss)” value with CFSE-labeled CD4 T-cells is “greatly inhibited indirect killing”.
